Common to all, as to type: in vivo, rat
For assay [1], the system named is rats under propofol anesthesia. The assay can be described thus: Measurement 1 of inhibiting effect of decrease in body temperature (rectal temperature, propofol anesthesia). Conditions: for variation of body temperature in 3 hours after administering the anesthesia solution to that before administration: average; for inhibiting effect of decrease in body temperature (core temperature), in words: summary of Table 2. The procedure: A catheter was inserted into an external jugular vein of each of rats used in the evaluation in advance and a tip of the catheter was […] from their backs and locked with heparin. […] Then, 42 mL/kg thereof were continuously administered for 1 hour simultaneously with the start of administration of the anesthesia agent. Numbers of each group were set to 4 to 6. As for the administration of the anesthesia agent, 15 mg/kg thereof was intravenously administered through the catheter with bolus method at the beginning. […] As for the measurement of the body temperature, a former value was measured with a rectal thermometer before administering amino acid solutions, and values were measured at 30-minute intervals from the start of administration of the anesthesia agent until 3 hours after the end thereof. The measurement results were calculated as variations (value before administration-value after administration) of values in 3 hours after administering the anesthesia solution to those before administration and represented with average ± standard deviation. As for a statistical test, comparison between two groups with the normal saline solution was conducted using student t-test.

Assay [2] relates to rats with surgical invasion under propofol anesthesia. The assay can be described thus: Effect on recovery from operative invasion (abdominal surgery under propofol anesthesia; body temperature and survival). Here is the method:
A catheter was inserted into an external jugular vein of each of rats (7 weeks age) used in the evaluation in advance and a tip of the catheter was exserted from their backs and locked with heparin. The rats were recovered for a few days in the status quo. 105 mg/kg of valine (5.25 mL/kg of 2 W/V % of valine solution) was administered through the catheter to a valine-administered group four times at 15-minute intervals from 60 minutes before the start of administration of a propofol anesthesia agent. Then, valine was continuously administered for 5 hours in 420 mg/kg/hr (21 mL/kg of 2 W/V % valine solution) simultaneously with the start of administration of the propofol anesthesia agent. A normal saline solution was administered instead of a valine solution to an objective group. As for the administration of the propofol anesthesia agent, 15 mg/kg thereof was intravenously administered through the catheter with bolus method at the beginning. Soon after that, the agent was started to be continuously administered in 45 mg/kg/hr. 1 hour later, the administration speed was changed to 33.75 mg/kg/hr and continuous administration was conducted for 5 hours. Numbers of each group were set to 8. As for surgical invasion, abdominals of the rats were opened after the bolus anesthesia, their appendixes were exteriorized from their abdominal cavities and exposed in the air for 30 minutes. Then, their appendixes were put back to their abdominal cavities and sutured. As for the measurement of the body temperatures, a former value was measured with a rectal thermometer before administering the amino acids, and the value was measured again in 3 hours after the administration of propofol. The results were shown as the decreased temperature to Pre value. Survival rates were calculated from number of survivors in 24 hours from the start of the experiment.

For assay [3], the system named is peripheral mononuclear blood cells (PBMC) TNF-α production. The assay can be described thus: Effect on production of peripheral mononuclear blood cell TNF-α (PBMC taken after anesthesia and celiotomy, LPS stimulation, ELISA). Conditions: PBMC incubated with 1 μg/mL LPS for 24 hours; valine 4 x 105 mg/kg then 420 mg/kg/hr for 1 hour; n=6. The procedure:
(§1) The examination was practiced with three groups of a normal group, a valine-administered group and an objective group. A catheter was inserted into an external jugular vein of each of rats (7 to 8 weeks age) used in the evaluation in advance and a tip of the catheter was exserted from their backs and locked with heparin. The rats were recovered for a few days in the status quo. 105 mg/kg of valine (5.25 mL/kg of 2 W/V % of valine solution) was administered through the inserted catheter to the valine-administered group (n=6) four times at 15-minute intervals from 60 minutes before the start of administration of a propofol anesthesia agent. Then, valine was continuously administered for 1 hour in 420 mg/kg/hr (21 mL/kg of 2 W/V % valine solution) simultaneously with the start of administration of the propofol anesthesia agent. A normal saline solution was administered instead of valine to the objective group (n=6). 15 mg/kg of the propofol anesthesia agent was introduced to be administered through the catheter at the beginning, and continuously administered for 3 hours in 33.75 mg/kg/hr. The celiotomy invasion was conducted by opening the abodominals of the rats simultaneously with the administration of the anesthesia, exteriorizing their appendixes from the abdominal cavities, putting them back again at once and suturing the abdominals. The catheter was not inserted to the normal group. […]
(An ELISA detects its analyte on a solid surface through an enzyme-linked reagent.)

Assay [4] relates to rats under propofol anesthesia. Briefly: Measurement 2 of inhibiting effect of decrease in body temperature: timing of valine administration (Groups A to D). The procedure:
Examination was conducted on whether differences of the inhibiting effect of decrease in body temperature of valine were shown depending on difference of timings of administration (following A to D). A catheter was inserted into an outward jugular vein of each of rats (7 to 8 weeks age) used in the evaluation in advance and a tip of the catheter was exserted from their backs and locked with heparin. The rats were recovered for a few days in the status quo. Valine was administered through the catheter with the following four methods:
A: for 2 hours before the start of administration of propofol
B: for 1 hour before the start of administration of propofol+1 hour after the start of administration of propofol
C: for 2 hours simultaneously with the start of administration of propofol
D: for 2 hours starting from 1 hour after the start of administration of propofol. 105 mg/kg of valine containing 10.5 mL/kg of 1% valine solution was administered to Group A eight times at 15-minute intervals. 105 mg/kg of valine containing 10.5 mL/kg of 1% valine solution was administered to Group B four times at 15-minute intervals and then continuously administered for 1 hour in 420 mg/kg/hr containing 42 mL/kg of 1% valine solution. Valine was continuously administered to Groups C and D for 2 hours in 420 mg/kg/hr containing 42 mL/kg of 1% valine solution. Each group (n=8 to 9) was administered the same total dose of valine. 15 mg/kg of a propofol anesthesia agent was administered through the catheter at the beginning and, after induction of anesthesia, it was continuously administered for 3 hours in 33.75 mg/kg/hr.

For assay [5], the system named is rats with celiotomy invasion under propofol anesthesia. Briefly: Body temperature at the end of anesthesia in the celiotomy invasion experiment. Conditions: valine-administered group, n=6. The procedure: as §1
The mark [6] stands for this setting: 0.1% solution i.v. (4 x 10.5 mL/kg before, 42 mL/kg during 1 h of propofol).
The mark [7] stands for this setting: 1% solution i.v. (4 x 10.5 mL/kg before, 42 mL/kg during 1 h of propofol).
The mark [8] stands for this setting: Group A: valine for 2 hours before the start of propofol.
The mark [9] stands for this setting: Group B: valine for 1 hour before + 1 hour after the start of propofol.
Setting [10] is: Group C: valine for 2 hours simultaneously with the start of propofol.
The mark [11] stands for this setting: Group D: valine for 2 hours starting 1 hour after the start of propofol.

Structures are written as SMILES.

From US20060063839A1, “Inhibitors of decrease in body temperature” (AJINOMOTO CO., INC., priority 2003, published 2006) come the findings set out here.

`N[C@@H](CC(=O)O)C(=O)O` [Asparatic Acid, asparatic acid]: the “variation of body temperature in 3 hours after administering the anesthesia solution to that before administration” value (“variation of body temperature in 3 hours” for short) in assay [1] (setting [6]) was −6.4 °C; in assay [1] (setting [7]) it was −4.5 °C. Further, the “inhibiting effect of decrease in body temperature (core temperature), in words” value in assay [1] was “inhibiting effect of decrease in body temperature (core temperature) was shown”.

Regarding `N[C@@H](CS)C(=O)O` [Cystein, cystein], the “variation of body temperature in 3 hours” value in assay [1] (setting [6]) was −6.3 °C; in assay [1] (setting [7]), −4.8 °C. The “inhibiting effect of decrease in body temperature (core temperature), in words” value in assay [1] is recorded as “inhibiting effect of decrease in body temperature (core temperature) was shown”.

Turning to `NCC(=O)O` [Glycine, glycine], the “variation of body temperature in 3 hours” value was −6.4 °C in assay [1] (setting [6]) and −6.1 °C in assay [1] (setting [7]). Also, the “inhibiting effect of decrease in body temperature (core temperature), in words” value in assay [1] is on record as “inhibiting effect of decrease in body temperature (core temperature) was shown”.

Turning to `CC(C)[C@H](N)C(=O)O` [Valine, valine], the “variation of body temperature in 3 hours” value in assay [1] (setting [6]) was −4.8 °C; in assay [1] (setting [7]), −4.0 °C. The “inhibiting effect of decrease in body temperature (core temperature), in words” value in assay [1] is “inhibiting effect of decrease in body temperature (core temperature) was shown”. Also, in assay [2] (3 hours after administration of propofol), the “inhibition of the decrease in body temperature versus the objective (saline) group” value is 1.19 °C. Besides, in assay [2] (3 hours after administration of propofol, valine 4 x 105 mg/kg then 420 mg/kg/hr for 5 hours, n=8), the “decrease in body temperature to Pre value” was determined as 7.83±0.87 °C. For the same compound, the “survival rate after one day” value in assay [2] (24 hours from the start of the experiment, n=8) was found to be 87.5%. The “production quantity of TNF-α” value in assay [3] was found to be 1389.8±415.8 pg/1×10^6 cells. In addition, the “decrease in body temperature from the time before administration until the end of the anesthesia” value in assay [4] (setting [8]) amounted to 6.1±1.9 °C; in assay [4] (setting [9]) it was 4.3±1.2 °C; in assay [4] (setting [10]), 6.1±1.4 °C; in assay [4] (setting [11]), 6.9±1.0 °C. The “increase in body temperature from the end of administration of the anesthesia until 1 hour after” value amounted to 1.1±0.5 °C in assay [4] (setting [8]), 2.0±1.2 °C in assay [4] (setting [9]), 2.0±0.9 °C in assay [4] (setting [10]) and 1.0±0.6 °C in assay [4] (setting [11]). Also, the “inhibiting effect of decrease in body temperature, in words” value in assay [4] (setting [11]) is “inhibiting effect of decrease in body temperature was not shown”. The “body temperature at the end of the administration of the anesthesia” value in assay [5] was 31.2±0.8 °C.
